The target of assay [1] is T1, F508delCFTR cell surface expression in CFBE41o-F508delCFTR-HRP cells (Homo sapiens, UniProt P13569, DEL508-508).
T1 construct: fused on or other part: Horseradish peroxidase (HRP) reporter inserted in the fourth exofacial (extracellular) loop of CFTR; expression is doxycycline-inducible
Briefly: Cell Surface Expression-Horse Radish Peroxidase (CSE-HRP) Assay. It counts as cell-based. As to conditions: for EC50: CFBE41o-F508delCFTR-HRP cells, 18-24 hours at 33° C., 8-point curve, highest concentration 20 μM; for Maximum % activity (%): maximum at any tested concentration, normalized to on-plate positive control (3 μM). The procedure, abridged: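 Correctors incubated 18-24 h at 33 °C on doxycycline-induced (0.5 μg/mL, 72 h) CFBE41o-F508delCFTR-HRP cells, 3-fold series from 20 μM. After DPBS washes, luminol luminescence read; activity expressed relative to DMSO and a 3 μM positive control, EC50 fitted from triplicate plates.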

Assay [2] addresses T2, F508delCFTR in primary hBE cells with F508del/F508del CFTR mutation (Homo sapiens, UniProt P13569, DEL508-508).
T2 construct: cells isolated from CF patients with the homozygous mutation; endogenous in cells; host or cells: primary human bronchial epithelial (hBE) cells from F508del/F508del CF patients
Description: Transepithelial Clamp Circuit on Human Bronchial Epithelial Cells Conductance Assay (hBE-TECC). The settings on record: for EC50: primary hBE cells F508del/F508del, 18-24 hours at 37° C., equivalent short circuit current, 6 concentrations. It counts as cell-based. From the text: Transepithelial Clamp Circuit on Human Bronchial Epithelial Cells Conductance Assay:
A cell based assay using the primary human bronchial epithelial cells (hBE) was used as a secondary assay to test novel F508delCFTR correctors for their activity on primary hBE cells with F508del/F508del CFTR mutation. The assay used a TECC-24 (Transepithelial Clamp Circuit for 24 wells) instrument that measures the functionality of the mutated channel by measuring the equivalent short circuit current (Ieq) generated by the polarized epithelial cells. The instrument works by measuring the transepithelial potential difference (Vt) and transepithelial resistance (Rt) in an open circuit format, and the Ieq is calculated by using Ohms law (Ieq=Vt/Rt). The assay was run in a 24-well format and all 24-wells were measured at the same time point giving a higher throughput for this assay.
Primary human bronchial epithelial (hBE) cells from F508del/F508delCFTR patients were expanded from 1×10^6 to 250×10^6 cells (Neuberger T, Burton B, Clark H and VanGoor F; Cystic Fibrosis, Methods in Mole Biol 741; eds. Amaral M D and Kunzelmann K, 2011). For this purpose, cells isolated from CF patients with the homozygous mutation were seeded onto 24 well Corning (Cat #3378) filter plates that were coated with 3T3 conditioned media and grown at an air-liquid interface for 35 days using an Ultroser® G supplemented differentiation media. Apical surface mucus was removed 72 hours before the experiment using 3 mM dithiothreitol (DTT) in phosphate buffered saline (PBS). The apical surface was washed again 24 hours before the experiment using PBS. The cells were incubated with the desired dose response of the corrector compounds 18-24 hours at 37° C., 5% CO2. The corrector compounds are only added on the basolateral side of the epithelial cells.
On the day of measuring the corrector activity on the TECC, the cells were switched into a bicarbonate and serum free F-12 Coon's medium and allowed to equilibrate for 90 minutes in a CO2 free incubator. At the time of measurement, the apical and basolateral sides of the filter were bathed with the F-12 Coon's modification media (with 20 mM 4-(2-hydroxyethyl)-1-piperazineethanesulfonic acid (HEPES), pH 7.4 (using 1 M tris(hydroxymethyl)aminomethane (Tris)), and the measurements were made at 36.5° C. Transepithelial voltage (Vt) and transepithelial resistance (Rt) were measured using a 24 channel transepithelial current clamp (TECC-24). Current responses to the sequential addition of benzamil (apical 6 μM addition; for inhibiting epithelial ENaC channel), forskolin (apical and basolateral 10 μM addition; for activating the CFTR channel), control potentiator (N-(3-carbamoyl-5,5,7,7-tetramethyl-4,7-dihydro-5H-thieno[2,3-c]pyran-2-yl)-1H-pyrazole-5-carboxamide; apical and basolateral […] addition; for potentiating the CFTR channel) and bumetanide (basolateral 20 μM addition; for inhibiting the Na:2Cl:K co-transporter, an indirect measure of inhibiting the Cl-secretion driven by CFTR channel) were measured.
All plates contained negative controls (dimethyl sulfoxide, DMSO) which coupled with the control potentiator (N-(3-carbamoyl-5,5,7,7-tetramethyl-4,7-dihydro-5H-thieno[2,3-c]pyran-2-yl)-1H-pyrazole-5-carboxamide) sets the null response and positive controls (3 μM of 3-[(2R,4R)-4-({[1-(2,2-difluoro-1,3-benzodioxol-5-yl)cyclopropyl]carbonyl}amino)-7-methoxy-3,4-dihydro-2H-chromen-2-yl]benzoic acid) coupled with the control potentiator sets the 100% response to measure the correction of the mutated CFTR channel. The maximum percent activity is reported relative to the positive control value.
The % activity measured at each of the 6 test concentrations of the test compound was normalized to the on-plate positive control using the following formula: % activity=[[…]]*100 […]

Setting [3] is: relative to positive control (3 μM) coupled with control potentiator.

T1 sequence (P13569 with tags, fused parts or gaps DEL508-508 limits assumed): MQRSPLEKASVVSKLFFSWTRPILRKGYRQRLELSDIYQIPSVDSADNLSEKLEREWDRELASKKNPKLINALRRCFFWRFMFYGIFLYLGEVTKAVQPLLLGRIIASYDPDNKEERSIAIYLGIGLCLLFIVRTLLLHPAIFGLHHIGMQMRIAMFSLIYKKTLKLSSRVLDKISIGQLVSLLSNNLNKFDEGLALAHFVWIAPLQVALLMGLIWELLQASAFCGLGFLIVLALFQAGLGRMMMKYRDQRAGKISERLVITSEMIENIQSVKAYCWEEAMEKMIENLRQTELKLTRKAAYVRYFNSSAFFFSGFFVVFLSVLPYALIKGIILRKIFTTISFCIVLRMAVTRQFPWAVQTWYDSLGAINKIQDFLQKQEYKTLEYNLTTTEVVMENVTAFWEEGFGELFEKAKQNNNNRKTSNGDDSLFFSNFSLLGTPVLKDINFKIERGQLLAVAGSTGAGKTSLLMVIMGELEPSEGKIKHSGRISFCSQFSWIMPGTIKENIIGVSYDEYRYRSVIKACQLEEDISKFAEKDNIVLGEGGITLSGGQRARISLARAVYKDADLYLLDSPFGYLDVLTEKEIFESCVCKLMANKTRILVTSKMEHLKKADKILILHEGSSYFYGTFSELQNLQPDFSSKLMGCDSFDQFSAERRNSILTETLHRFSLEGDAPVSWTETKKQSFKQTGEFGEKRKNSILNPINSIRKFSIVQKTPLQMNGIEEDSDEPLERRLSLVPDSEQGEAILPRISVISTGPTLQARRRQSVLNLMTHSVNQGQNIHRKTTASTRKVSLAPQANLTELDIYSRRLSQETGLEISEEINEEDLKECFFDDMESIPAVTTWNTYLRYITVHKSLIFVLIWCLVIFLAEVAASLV
T1 sequence (P13569 919-1480 limits assumed, stated change not applied): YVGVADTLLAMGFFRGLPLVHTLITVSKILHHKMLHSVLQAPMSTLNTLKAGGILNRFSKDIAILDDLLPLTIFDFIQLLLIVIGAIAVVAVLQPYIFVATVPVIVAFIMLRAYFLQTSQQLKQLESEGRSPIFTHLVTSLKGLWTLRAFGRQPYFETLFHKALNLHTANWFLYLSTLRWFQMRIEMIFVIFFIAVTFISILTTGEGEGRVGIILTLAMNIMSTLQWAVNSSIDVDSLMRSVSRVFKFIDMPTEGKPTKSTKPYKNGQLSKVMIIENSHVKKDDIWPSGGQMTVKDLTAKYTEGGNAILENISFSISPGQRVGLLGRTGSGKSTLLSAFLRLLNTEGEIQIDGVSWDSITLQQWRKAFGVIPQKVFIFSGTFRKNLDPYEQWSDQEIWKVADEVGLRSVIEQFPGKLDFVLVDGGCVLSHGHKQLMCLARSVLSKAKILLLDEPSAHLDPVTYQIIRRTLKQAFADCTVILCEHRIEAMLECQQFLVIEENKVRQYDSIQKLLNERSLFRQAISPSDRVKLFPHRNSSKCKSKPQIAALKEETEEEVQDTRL
T2 sequence (P13569 with tags, fused parts or gaps DEL508-508): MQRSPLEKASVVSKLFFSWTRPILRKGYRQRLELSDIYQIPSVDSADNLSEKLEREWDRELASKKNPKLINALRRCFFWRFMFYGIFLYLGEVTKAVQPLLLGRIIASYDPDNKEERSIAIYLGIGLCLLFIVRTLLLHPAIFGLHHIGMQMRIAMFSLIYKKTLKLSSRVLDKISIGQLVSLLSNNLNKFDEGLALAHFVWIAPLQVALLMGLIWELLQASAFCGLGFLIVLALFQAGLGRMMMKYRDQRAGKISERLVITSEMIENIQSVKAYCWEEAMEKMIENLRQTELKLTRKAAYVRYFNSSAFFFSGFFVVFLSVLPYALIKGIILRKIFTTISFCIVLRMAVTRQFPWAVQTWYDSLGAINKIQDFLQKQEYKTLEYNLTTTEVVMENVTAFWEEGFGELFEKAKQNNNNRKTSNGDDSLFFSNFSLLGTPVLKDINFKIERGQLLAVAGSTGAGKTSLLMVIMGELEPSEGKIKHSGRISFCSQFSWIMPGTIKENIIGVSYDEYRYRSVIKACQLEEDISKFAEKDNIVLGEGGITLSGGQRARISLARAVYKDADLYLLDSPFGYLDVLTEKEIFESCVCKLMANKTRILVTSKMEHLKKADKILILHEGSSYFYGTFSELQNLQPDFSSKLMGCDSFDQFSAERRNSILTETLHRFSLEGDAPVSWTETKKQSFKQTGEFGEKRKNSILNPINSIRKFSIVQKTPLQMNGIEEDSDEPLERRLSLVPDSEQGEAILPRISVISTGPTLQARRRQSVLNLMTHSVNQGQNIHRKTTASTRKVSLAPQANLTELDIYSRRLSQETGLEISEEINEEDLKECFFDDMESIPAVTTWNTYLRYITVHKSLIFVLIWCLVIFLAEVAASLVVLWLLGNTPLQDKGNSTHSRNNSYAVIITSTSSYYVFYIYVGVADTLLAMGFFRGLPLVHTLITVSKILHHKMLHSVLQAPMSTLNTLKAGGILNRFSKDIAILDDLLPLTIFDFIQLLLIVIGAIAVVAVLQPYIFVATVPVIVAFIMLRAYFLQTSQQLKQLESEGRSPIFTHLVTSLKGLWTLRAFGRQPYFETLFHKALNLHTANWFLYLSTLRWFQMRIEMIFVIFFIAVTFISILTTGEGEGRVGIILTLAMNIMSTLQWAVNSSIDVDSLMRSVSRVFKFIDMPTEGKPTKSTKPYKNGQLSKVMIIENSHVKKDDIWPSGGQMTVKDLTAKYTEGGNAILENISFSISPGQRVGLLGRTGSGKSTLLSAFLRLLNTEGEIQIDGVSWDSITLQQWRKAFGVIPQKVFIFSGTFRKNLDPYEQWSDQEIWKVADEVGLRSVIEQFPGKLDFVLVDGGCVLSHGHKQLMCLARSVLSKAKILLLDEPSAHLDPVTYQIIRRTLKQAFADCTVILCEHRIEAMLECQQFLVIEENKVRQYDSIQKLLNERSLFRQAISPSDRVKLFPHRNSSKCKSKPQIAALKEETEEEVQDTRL

A word on the EC50: it is the concentration giving half of the maximal effect. Consider `COc1ccc2c(c1)O[C@@H]([C@H]1CC[C@H](C(=O)N3C[C@H](O)[C@@H](O)C3)CC1)C[C@H]2NC(=O)[C@@]1(C)COc2cc3c(cc21)OC(F)(F)O3` [Example 281, (7R)—N-[(2R,4R)-2-{trans-4-[(3S,4S)-3,4-dihydroxypyrrolidine-1-carbonyl]cyclohexyl}-7-methoxy-3,4-dihydro-2H-1-benzopyran-4-yl]-2,2-difluoro-7-methyl-6,7-dihydro-2H-furo[2,3-f][1,3]benzodioxole-7-carboxamide], for which the concentration for a half-maximal effect (EC50) turned out to be 470 nM in assay [1] and 117 nM in assay [2]. Besides, the “Maximum % activity (%)” value came out at 154% in assay [1] and 134% in assay [2] (setting [3]).

With `C[C@]1(C(=O)N[C@@H]2C[C@H](c3ccc(CO)cn3)Oc3cc(OC(F)(F)F)ccc32)COc2cc3c(cc21)OC(F)(F)O3` [Example 177, (7R)-2,2-difluoro-N-[(2R,4R)-2-[5-(hydroxymethyl)pyridin-2-yl]-7-(trifluoromethoxy)-3,4-dihydro-2H-1-benzopyran-4-yl]-7-methyl-6,7-dihydro-2H-furo[2,3-f][1,3]benzodioxole-7-carboxamide], the EC50 in assay [1] worked out at 90 nM; in assay [2], 13 nM. The “Maximum % activity (%)” value in assay [1] amounted to 127%; in assay [2] (setting [3]) it was 99%.

On to `C[C@]1(C(=O)N[C@@H]2C[C@H](c3ccc(C(=O)O)cn3)Oc3cc(OC(F)(F)F)ccc32)COc2cc3c(cc21)OC(F)(F)O3` [Example 145, 6-[(2R,4R)-4-{[(7R)-2,2-difluoro-7-methyl-6,7-dihydro-2H-furo[2,3-f][1,3]benzodioxole-7-carbonyl]amino}-7-(trifluoromethoxy)-3,4-dihydro-2H-1-benzopyran-2-yl]pyridine-3-carboxylic acid], for which the EC50 in assay [1] turned out to be 3 nM; in assay [2] it was 0.831 nM. In addition, the “Maximum % activity (%)” value in assay [1] was 118%; in assay [2] (setting [3]), 91%.

Take `C[C@]1(C(=O)N[C@H]2C[C@@H]([C@H]3CC[C@H](C(=O)O)CC3)Oc3cc(OC(F)(F)F)ccc32)COc2cc3c(cc21)OC(F)(F)O3` [Example 149, trans-4-[(2S,4S)-4-{[(7R)-2,2-difluoro-7-methyl-6,7-dihydro-2H-furo[2,3-f][1,3]benzodioxole-7-carbonyl]amino}-7-(trifluoromethoxy)-3,4-dihydro-2H-1-benzopyran-2-yl]cyclohexane-1-carboxylic acid]: the values for the EC50 in assay [1] and in assay [2] were 2200 nM and 830 nM, respectively. Further, the entries for the “Maximum % activity (%)” value in assay [1] and in assay [2] (setting [3]) were 44% and 24%, respectively.

As for `C[C@]1(C(=O)Nc2ccc(Cl)c(-c3cccc(C(=O)O)c3)n2)COc2cc3c(cc21)OC(F)(F)O3` [Example 95, 3-(3-chloro-6-{[(7R)-2,2-difluoro-7-methyl-6,7-dihydro-2H-furo[2,3-f][1,3]benzodioxole-7-carbonyl]amino}pyridin-2-yl)benzoic acid], in assay [1], the EC50 is 590 nM and the “Maximum % activity (%)” value worked out at 167%. Moreover, the “Maximum % activity (%)” value in assay [2] (testing concentration 1 μM) came to 50%.

In the case of `C[C@]1(C(=O)N[C@@H]2C[C@H]([C@H]3CC[C@@H](C(=O)O)CC3)Oc3cc(OC(F)(F)F)ccc32)COc2cc3c(cc21)OC(F)(F)O3` [Example 162, cis-4-[(2R,4R)-4-{[(7R)-2,2-difluoro-7-methyl-6,7-dihydro-2H-furo[2,3-f][1,3]benzodioxole-7-carbonyl]amino}-7-(trifluoromethoxy)-3,4-dihydro-2H-1-benzopyran-2-yl]cyclohexane-1-carboxylic acid], the EC50 in assay [1] is 712 nM; in assay [2] it was 20 nM. For the same compound, the “Maximum % activity (%)” value in assay [1] is given as 120%; in assay [2] (setting [3]) it was 86%.

`C[C@]1(C(=O)N[C@@H]2C[C@H]([C@H]3CC[C@H](C(=O)N4C[C@H](O)[C@@H](O)C4)CC3)Oc3cc(OC(F)(F)F)ccc32)COc2cc3c(cc21)OC(F)(F)O3` [Example 256, (7R)—N-[(2R,4R)-2-{trans-4-[(3S,4S)-3,4-dihydroxypyrrolidine-1-carbonyl]cyclohexyl}-7-(trifluoromethoxy)-3,4-dihydro-2H-1-benzopyran-4-yl]-2,2-difluoro-7-methyl-6,7-dihydro-2H-furo[2,3-f][1,3]benzodioxole-7-carboxamide]: the concentration giving a half-maximal response (EC50) in assay [1] is 60 nM; in assay [2], 10 nM. In addition, the “Maximum % activity (%)” value in assay [1] was found to be 168%; in assay [2] (setting [3]) it was 106%.

For `C[C@]1(C(=O)Nc2cc(-c3ccccc3)nn(C[C@@H](O)CO)c2=O)COc2cc3c(cc21)OC(F)(F)O3` [Example 27, (7R)—N-{2-[(2R)-2,3-dihydroxypropyl]-3-oxo-6-phenyl-2,3-dihydropyridazin-4-yl}-2,2-difluoro-7-methyl-6,7-dihydro-2H-furo[2,3-f][1,3]benzodioxole-7-carboxamide], in assay [1], the EC50 was determined as 810 nM and the “Maximum % activity (%)” value is listed as 82%. Besides, in assay [2] (testing concentration 3 μM), the “Maximum % activity (%)” value was 54%.

On to `C[C@]1(C(=O)N[C@H]2C[C@@H](c3ccccc3)O[C@@H](c3ccc(C(=O)O)cc3)C2)COc2cc3c(cc21)OC(F)(F)O3` (single isomer, unassigned) [Example 44], for which the results for the EC50 in assay [1] and in assay [2] were 930 nM and 246 nM, respectively. For the same compound, the “Maximum % activity (%)” value worked out at 114% in assay [1] and 83% in assay [2] (setting [3]).

For `COc1ccc2c(c1)O[C@@H](c1ccc(C(=O)O)nc1)C[C@H]2NC(=O)[C@@]1(C)COc2cc3c(cc21)OC(F)(F)O3` [Example 146, 5-[(2R,4R)-4-{[(7R)-2,2-difluoro-7-methyl-6,7-dihydro-2H-furo[2,3-f][1,3]benzodioxole-7-carbonyl]amino}-7-methoxy-3,4-dihydro-2H-1-benzopyran-2-yl]pyridine-2-carboxylic acid], the values for the EC50 in assay [1] and in assay [2] were 335 nM and 160 nM, respectively. Further, the “Maximum % activity (%)” value in assay [1] is 153%; in assay [2] (setting [3]) it was 89%.

Turning to `CC1(C)COC(C)(C)c2c1n(C[C@@H](O)CO)c1cc(F)c(NC(=O)[C@@]3(C)COc4cc5c(cc43)OC(F)(F)O5)cc21` [Example 206, (7R)—N-{5-[(2R)-2,3-dihydroxypropyl]-7-fluoro-1,1,4,4-tetramethyl-1,3,4,5-tetrahydropyrano[4,3-b]indol-8-yl}-2,2-difluoro-7-methyl-6,7-dihydro-2H-furo[2,3-f][1,3]benzodioxole-7-carboxamide], the EC50 in assay [1] was found to be 1950 nM; in assay [2], 1030 nM. Also, the “Maximum % activity (%)” value in assay [1] came out at 84%; in assay [2] (setting [3]), 79%.

Take `CC1(C(=O)N[C@@H]2C[C@H](c3cccc(C(=O)O)c3)Oc3ccccc32)CCc2cc3c(cc21)OC(F)(F)O3` (stereo partly drawn) [Example 35, 3-{(2R,4R)-4-[(2,2-difluoro-5-methyl-6,7-dihydro-2H,5H-indeno[5,6-d][1,3]dioxole-5-carbonyl)amino]-3,4-dihydro-2H-1-benzopyran-2-yl}benzoic acid]: in assay [1], the EC50 came to 940 nM and the “Maximum % activity (%)” value is 76%. Besides, the “Maximum % activity (%)” value in assay [2] (testing concentration 3 μM) amounted to 80%.

(Values after patent publication US9840513B2 (AbbVie S.à.r.l., priority 2015, dated 2017).)
